Experimental findings from ChEMBL document CHEMBL3991601, “The target landscape of clinical kinase drugs” (Science, 2017) are described below.

The source made the active and inactive calls. Rule as the data show it, for most assays here: actives have a measured Kd and inactives only a lower limit.

For test [1], the target named is Ribosomal protein S6 kinase beta-1 (Homo sapiens, UniProt P23443).
Test [2] has as its target T1, Probable ATP-dependent RNA helicase DDX6 (Homo sapiens, UniProt P26196).
T1 sequence (P26196 whole entry): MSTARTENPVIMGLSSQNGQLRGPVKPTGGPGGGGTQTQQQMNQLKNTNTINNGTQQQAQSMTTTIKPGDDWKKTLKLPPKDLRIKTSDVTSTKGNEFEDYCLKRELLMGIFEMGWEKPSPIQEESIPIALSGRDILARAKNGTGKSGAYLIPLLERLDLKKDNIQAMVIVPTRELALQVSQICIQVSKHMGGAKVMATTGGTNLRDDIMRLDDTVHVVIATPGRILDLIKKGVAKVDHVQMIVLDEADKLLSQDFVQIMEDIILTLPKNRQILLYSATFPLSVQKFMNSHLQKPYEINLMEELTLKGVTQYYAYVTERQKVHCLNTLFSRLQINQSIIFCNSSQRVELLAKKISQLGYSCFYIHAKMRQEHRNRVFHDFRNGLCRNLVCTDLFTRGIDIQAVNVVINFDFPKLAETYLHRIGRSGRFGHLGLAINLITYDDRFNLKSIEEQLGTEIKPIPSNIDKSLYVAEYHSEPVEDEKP

Test [3] addresses T2, Serine/threonine-protein kinase TAO1 (Homo sapiens, UniProt Q7L7X3).
T2 sequence (Q7L7X3 whole entry): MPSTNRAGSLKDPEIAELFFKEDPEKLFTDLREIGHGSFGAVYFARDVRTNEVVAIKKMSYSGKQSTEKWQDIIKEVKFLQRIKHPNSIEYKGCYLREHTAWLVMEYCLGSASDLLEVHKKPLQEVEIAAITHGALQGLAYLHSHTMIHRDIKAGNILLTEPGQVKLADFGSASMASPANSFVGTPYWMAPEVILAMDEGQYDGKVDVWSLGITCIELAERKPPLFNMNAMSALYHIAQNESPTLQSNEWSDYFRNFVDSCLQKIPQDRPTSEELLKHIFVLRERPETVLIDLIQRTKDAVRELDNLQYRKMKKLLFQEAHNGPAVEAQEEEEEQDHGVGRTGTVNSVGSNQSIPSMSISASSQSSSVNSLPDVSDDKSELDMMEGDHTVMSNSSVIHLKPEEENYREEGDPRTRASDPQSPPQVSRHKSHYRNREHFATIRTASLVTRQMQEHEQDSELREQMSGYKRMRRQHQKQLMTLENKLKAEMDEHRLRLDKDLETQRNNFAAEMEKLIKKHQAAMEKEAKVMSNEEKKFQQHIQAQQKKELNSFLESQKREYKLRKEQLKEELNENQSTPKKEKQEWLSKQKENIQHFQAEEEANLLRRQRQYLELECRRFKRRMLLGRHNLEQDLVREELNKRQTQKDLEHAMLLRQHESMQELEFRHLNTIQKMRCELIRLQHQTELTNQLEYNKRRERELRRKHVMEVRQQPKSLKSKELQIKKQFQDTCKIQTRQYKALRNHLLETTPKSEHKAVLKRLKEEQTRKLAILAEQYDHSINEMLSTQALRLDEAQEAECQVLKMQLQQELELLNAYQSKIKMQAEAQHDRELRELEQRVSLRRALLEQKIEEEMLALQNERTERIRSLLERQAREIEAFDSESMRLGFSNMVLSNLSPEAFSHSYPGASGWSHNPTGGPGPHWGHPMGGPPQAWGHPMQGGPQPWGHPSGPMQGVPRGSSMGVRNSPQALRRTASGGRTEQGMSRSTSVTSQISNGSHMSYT

Test [4] has as its target T3, Tyrosine-protein kinase Tec (Homo sapiens, UniProt P42680).
T3 sequence (P42680 whole entry): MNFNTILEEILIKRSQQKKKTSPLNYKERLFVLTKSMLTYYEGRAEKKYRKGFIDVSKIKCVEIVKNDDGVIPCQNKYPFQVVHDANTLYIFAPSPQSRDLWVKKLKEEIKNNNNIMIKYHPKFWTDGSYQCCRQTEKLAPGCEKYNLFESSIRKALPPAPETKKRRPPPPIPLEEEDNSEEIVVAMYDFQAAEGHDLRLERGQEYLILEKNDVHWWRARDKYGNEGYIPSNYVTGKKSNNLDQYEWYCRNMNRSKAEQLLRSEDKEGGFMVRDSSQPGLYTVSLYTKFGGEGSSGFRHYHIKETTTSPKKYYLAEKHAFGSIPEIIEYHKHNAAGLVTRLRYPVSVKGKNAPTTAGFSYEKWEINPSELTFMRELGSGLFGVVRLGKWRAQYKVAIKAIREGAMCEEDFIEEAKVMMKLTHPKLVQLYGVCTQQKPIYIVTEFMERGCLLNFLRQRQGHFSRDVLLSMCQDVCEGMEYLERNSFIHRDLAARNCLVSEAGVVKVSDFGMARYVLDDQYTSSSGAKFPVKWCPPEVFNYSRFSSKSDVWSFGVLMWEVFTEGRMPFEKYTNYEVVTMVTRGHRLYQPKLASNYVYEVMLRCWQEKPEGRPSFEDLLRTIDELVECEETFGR

The target in test [5] is Mitogen-activated protein kinase kinase kinase 4 (Homo sapiens, UniProt Q9Y6R4).
Test [6] deals with Ribosomal protein S6 kinase alpha-5 (Homo sapiens, UniProt O75582).
Ribosomal protein S6 kinase alpha-5, sequence (O75582 whole entry): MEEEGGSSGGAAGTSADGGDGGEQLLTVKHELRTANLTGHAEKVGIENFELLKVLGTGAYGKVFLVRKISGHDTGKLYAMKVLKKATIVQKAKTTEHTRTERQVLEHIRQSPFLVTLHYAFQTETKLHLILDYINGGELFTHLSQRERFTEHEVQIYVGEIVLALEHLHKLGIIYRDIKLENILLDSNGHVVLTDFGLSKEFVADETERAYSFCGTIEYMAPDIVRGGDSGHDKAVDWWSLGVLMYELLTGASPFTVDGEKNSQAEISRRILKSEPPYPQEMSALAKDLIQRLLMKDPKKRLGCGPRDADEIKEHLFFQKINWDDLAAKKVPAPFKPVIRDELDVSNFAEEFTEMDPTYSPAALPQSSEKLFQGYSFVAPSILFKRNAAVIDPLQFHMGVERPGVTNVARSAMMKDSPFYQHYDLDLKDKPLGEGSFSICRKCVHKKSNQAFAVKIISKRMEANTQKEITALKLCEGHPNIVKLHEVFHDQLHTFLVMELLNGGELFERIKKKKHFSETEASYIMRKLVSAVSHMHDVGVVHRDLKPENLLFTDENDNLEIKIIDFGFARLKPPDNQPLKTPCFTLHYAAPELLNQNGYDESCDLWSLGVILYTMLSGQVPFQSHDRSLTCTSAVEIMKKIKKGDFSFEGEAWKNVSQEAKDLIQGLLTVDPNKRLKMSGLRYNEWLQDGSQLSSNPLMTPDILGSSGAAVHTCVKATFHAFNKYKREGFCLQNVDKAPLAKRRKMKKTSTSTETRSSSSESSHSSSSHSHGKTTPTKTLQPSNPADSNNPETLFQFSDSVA
Test [7] addresses Casein kinase II subunit alpha' (Homo sapiens, UniProt P19784).
Test [8] has as its target Dual specificity protein kinase CLK1 (Homo sapiens, UniProt P49759).
In test [9] the target is Protein kinase C beta type (Homo sapiens, UniProt P05771).
Protein kinase C beta type, sequence (P05771 whole entry): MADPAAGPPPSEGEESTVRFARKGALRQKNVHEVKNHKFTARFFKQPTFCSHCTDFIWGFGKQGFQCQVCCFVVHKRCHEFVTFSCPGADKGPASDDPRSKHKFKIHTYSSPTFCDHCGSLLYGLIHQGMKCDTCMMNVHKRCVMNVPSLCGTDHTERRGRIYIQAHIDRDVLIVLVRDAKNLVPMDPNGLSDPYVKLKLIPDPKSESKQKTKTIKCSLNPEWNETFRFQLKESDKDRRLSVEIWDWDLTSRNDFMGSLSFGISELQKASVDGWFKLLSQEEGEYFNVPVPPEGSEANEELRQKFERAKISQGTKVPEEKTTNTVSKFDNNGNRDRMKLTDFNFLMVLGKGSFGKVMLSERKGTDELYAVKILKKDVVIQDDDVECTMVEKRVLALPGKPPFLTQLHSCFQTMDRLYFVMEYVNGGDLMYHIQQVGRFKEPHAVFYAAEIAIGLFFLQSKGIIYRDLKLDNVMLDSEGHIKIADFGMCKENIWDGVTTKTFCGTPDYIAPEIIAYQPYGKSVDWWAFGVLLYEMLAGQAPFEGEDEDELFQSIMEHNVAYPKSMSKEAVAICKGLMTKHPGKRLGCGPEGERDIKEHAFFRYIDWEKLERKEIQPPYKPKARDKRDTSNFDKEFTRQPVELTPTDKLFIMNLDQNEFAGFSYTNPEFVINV
In test [10] the target is Protein-tyrosine kinase 2-beta (Homo sapiens, UniProt Q14289).
Test [11] concerns the target Serine/threonine-protein kinase MRCK beta (Homo sapiens, UniProt Q9Y5S2).
For test [12], the target named is Ephrin type-A receptor 7 (Homo sapiens, UniProt Q15375).
Ephrin type-A receptor 7, sequence (Q15375 whole entry): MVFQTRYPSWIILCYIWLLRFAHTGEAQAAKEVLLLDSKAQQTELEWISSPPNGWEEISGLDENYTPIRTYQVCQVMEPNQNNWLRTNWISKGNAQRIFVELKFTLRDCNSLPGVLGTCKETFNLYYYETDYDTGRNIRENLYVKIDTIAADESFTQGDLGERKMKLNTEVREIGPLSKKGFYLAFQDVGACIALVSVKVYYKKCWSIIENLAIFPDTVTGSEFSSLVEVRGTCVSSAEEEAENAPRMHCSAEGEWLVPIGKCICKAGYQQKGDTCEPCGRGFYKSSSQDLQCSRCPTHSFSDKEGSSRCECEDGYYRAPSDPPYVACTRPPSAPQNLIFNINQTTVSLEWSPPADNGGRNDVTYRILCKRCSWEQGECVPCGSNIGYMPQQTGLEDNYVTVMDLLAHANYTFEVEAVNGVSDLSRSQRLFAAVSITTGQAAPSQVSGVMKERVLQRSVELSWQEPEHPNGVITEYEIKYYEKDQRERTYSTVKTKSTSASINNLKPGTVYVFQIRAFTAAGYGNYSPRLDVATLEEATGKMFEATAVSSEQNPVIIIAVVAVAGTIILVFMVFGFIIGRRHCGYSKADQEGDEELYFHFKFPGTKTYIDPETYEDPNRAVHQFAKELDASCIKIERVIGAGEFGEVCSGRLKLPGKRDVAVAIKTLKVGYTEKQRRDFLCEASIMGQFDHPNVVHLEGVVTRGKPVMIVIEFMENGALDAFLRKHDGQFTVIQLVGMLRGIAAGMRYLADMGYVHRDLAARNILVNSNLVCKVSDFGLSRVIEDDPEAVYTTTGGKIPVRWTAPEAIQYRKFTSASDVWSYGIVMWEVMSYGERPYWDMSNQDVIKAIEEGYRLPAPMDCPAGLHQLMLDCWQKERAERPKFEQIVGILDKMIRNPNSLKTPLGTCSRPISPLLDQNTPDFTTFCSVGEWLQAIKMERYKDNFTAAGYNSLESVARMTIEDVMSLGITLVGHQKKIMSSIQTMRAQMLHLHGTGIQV
Also: in the data inactive means no Kd found up to 30 µM.

Serine/threonine-protein kinase MRCK beta, sequence (Q9Y5S2 whole entry): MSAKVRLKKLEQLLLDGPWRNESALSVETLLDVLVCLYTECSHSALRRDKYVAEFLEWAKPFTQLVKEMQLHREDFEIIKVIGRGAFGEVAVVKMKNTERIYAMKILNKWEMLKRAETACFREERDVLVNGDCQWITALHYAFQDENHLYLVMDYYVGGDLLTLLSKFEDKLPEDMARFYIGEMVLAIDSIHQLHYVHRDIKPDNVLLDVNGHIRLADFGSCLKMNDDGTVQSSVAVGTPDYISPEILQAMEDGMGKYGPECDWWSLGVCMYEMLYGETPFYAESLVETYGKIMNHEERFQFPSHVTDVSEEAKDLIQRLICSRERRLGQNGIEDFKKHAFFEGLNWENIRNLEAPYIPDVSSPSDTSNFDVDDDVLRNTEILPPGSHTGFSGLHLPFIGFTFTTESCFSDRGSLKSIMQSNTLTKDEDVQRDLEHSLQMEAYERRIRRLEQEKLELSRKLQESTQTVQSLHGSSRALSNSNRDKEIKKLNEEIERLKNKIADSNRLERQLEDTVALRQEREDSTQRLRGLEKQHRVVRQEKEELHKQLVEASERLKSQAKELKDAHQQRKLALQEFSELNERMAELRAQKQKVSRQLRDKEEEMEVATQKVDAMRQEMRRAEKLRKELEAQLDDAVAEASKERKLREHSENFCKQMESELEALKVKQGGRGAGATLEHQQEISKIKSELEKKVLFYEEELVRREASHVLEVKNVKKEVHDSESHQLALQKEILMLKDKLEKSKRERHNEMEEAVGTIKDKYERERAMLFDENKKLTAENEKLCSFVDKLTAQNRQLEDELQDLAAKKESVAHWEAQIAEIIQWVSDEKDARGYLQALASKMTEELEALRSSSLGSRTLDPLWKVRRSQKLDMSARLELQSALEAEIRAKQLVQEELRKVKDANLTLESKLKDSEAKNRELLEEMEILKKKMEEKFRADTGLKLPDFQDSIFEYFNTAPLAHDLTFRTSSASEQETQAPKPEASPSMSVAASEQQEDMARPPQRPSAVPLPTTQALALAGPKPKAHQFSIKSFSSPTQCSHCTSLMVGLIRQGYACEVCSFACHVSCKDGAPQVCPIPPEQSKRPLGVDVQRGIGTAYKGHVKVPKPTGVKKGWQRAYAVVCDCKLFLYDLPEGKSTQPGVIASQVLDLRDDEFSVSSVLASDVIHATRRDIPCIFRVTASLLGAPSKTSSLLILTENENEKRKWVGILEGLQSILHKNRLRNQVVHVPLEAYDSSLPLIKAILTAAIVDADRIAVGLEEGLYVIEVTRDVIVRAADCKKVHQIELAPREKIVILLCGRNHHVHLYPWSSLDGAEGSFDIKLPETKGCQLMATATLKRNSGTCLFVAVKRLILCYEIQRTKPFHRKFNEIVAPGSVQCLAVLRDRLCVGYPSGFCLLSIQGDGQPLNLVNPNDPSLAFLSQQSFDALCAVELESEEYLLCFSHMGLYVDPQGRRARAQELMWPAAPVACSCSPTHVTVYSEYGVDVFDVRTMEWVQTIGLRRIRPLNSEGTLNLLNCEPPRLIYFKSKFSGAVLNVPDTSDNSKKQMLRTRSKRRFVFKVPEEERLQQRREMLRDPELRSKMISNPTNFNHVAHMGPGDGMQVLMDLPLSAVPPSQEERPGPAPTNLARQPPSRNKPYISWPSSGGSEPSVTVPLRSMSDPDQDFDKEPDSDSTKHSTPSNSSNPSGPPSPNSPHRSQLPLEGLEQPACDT
Dual specificity protein kinase CLK1, sequence (P49759 whole entry): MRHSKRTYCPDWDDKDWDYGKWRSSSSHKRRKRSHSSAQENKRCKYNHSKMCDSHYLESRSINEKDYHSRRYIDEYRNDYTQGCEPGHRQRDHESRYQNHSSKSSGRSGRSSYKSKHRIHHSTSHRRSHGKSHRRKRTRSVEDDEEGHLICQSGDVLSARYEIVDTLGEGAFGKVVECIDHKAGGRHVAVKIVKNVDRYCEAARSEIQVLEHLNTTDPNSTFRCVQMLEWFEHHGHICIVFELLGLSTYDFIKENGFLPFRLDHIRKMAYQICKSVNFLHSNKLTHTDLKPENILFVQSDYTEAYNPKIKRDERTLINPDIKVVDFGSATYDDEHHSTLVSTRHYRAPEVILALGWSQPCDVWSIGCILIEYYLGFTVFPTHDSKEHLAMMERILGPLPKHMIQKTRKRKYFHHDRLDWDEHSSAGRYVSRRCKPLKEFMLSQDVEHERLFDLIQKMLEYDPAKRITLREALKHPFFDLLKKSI
Casein kinase II subunit alpha', sequence (P19784 whole entry): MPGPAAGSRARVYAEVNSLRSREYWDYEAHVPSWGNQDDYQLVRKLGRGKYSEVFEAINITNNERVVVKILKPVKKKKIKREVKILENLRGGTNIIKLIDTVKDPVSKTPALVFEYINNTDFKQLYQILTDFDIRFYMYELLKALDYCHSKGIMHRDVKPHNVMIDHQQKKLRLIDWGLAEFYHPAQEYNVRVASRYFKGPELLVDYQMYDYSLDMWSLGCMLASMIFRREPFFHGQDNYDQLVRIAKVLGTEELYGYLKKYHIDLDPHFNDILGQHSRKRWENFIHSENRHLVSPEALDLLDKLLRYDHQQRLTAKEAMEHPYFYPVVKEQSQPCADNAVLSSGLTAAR

With `C=CC(=O)Nc1cc(Nc2nccc(-c3cn(C)c4ccccc34)n2)c(OC)cc1N(C)CCN(C)C` [OSIMERTINIB], the Kd was > 30 µM (inactive) in test [1]; > 30 µM (inactive) in test [2]; > 30 µM (inactive) in test [3]; 0.321 µM (active) in test [4]; > 30 µM (inactive) in test [5]; > 30 µM (inactive) in [6]. Further, the Kd in test [7], in test [8], in [9], in [10], in test [11] and in test [12] was > 30 µM (inactive) each time.
For the compound `COc1cc(Nc2ncc(F)c(Nc3ccc4c(n3)N(COP(=O)(O)O)C(=O)C(C)(C)O4)n2)cc(OC)c1OC` [FOSTAMATINIB], the Kd in [1], in [2], in test [3], in [4], in test [5] and in test [6] was > 30 µM (inactive) throughout. Besides, the Kd in test [7], in test [8], in test [9], in test [10], in [11] and in [12] was > 30 µM (inactive) each time.
With `O=S(=O)(c1cccc2c(O)nccc12)N1CCCNCC1` [HYDROXYFASUDIL], the Kd in test [1], in test [2], in [3], in test [4], in test [5] and in [6] was > 30 µM (inactive) in each case. Besides, the Kd in [7] is > 30 µM (inactive); in [8] it was 24.1 µM (active); in [9], > 30 µM (inactive); in [10] it was > 30 µM (inactive); in test [11], > 30 µM (inactive); in test [12] it was > 30 µM (inactive).
`Cc1c(NC(=O)OC[C@@H]2COCCN2)cn2ncnc(Nc3ccc4c(cnn4Cc4cccc(F)c4)c3)c12` [AC-480]: the Kd in [1], in test [2], in [3], in test [4], in test [5] and in [6] was > 30 µM (inactive) each time. For the same compound, the Kd in [7], in test [8], in test [9], in test [10], in test [11] and in [12] was > 30 µM (inactive) throughout.
For `O[C@H]1CC[C@H](Nc2ncc3nc(Nc4c(F)cc(F)cc4F)n([C@H]4CCOC4)c3n2)CC1` [TANZISERTIB], the Kd in test [1], in test [2], in test [3], in test [4], in test [5] and in test [6] was > 30 µM (inactive) each time. Besides, the Kd in [7], in [8], in [9], in [10], in [11] and in test [12] was > 30 µM (inactive) throughout.

A word on the Kd: it is a measure of binding affinity in units of concentration.
